Measurements as given in US20150105252A1, “SUBSTITUTED PYRAZOLES AS HERBICIDES” (E I DU PONT DE NEMOURS AND COMPANY, priority 2013, published 2015).

What was measured:
barnyardgrass [1] = assay: Test A preemergence; assay type: in vivo, Echinochloa crus-galli; conditions: preemergence
Summary of the method: (§1)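 Both timings tested concurrently in loam/sand soil: preemergence by directed soil spray, postemergence on plants of 2–10 cm at the one- to two-leaf stage. Greenhouse holding period was approximately 10 days before visual injury assessment (0–100, 0 = no effect).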

crabgrass, large [2] = assay: Test A preemergence; assay type: in vivo, Digitaria sanguinalis; conditions: preemergence
Summary of the method: as §1

foxtail, giant [3] = assay: Test A preemergence; assay type: in vivo, Setaria faberii; conditions: preemergence
Summary of the method: as §1

morningglory [4] = assay: Test A preemergence; assay type: in vivo, Ipomoea spp.; conditions: preemergence
Summary of the method: as §1

pigweed [5] = assay: Test A preemergence; assay type: in vivo, Amaranthus retroflexus; conditions: preemergence
Summary of the method: as §1

velvetleaf [6] = assay: Test A preemergence; assay type: in vivo, Abutilon theophrasti; conditions: preemergence
Summary of the method: as §1

wheat [7] = assay: Test A preemergence; assay type: in vivo, Triticum aestivum; conditions: preemergence
Summary of the method: as §1

corn [8] = assay: Test A preemergence; assay type: in vivo, Zea mays; conditions: preemergence
Summary of the method: as §1

barnyardgrass [9] = assay: Test A postemergence; assay type: in vivo, Echinochloa crus-galli
Summary of the method: as §1

crabgrass, large [10] = assay: Test A postemergence; assay type: in vivo, Digitaria sanguinalis
Summary of the method: as §1

foxtail, giant [11] = assay: Test A postemergence; assay type: in vivo, Setaria faberii
Summary of the method: as §1

morningglory [12] = assay: Test A postemergence; assay type: in vivo, Ipomoea spp.
Summary of the method: as §1

pigweed [13] = assay: Test A postemergence; assay type: in vivo, Amaranthus retroflexus
Summary of the method: as §1

velvetleaf [14] = assay: Test A postemergence; assay type: in vivo, Abutilon theophrasti
Summary of the method: as §1

wheat [15] = assay: Test A postemergence; assay type: in vivo, Triticum aestivum
Summary of the method: as §1

corn [16] = assay: Test A postemergence; assay type: in vivo, Zea mays
Summary of the method: as §1

rice = assay: Test B flood; assay type: in vivo, Oryza sativa; conditions: 250 g ai/ha, visual rating on 0 to 100 scale (0 no effect, 100 complete control), 13 to 15 days
Summary of the method: (§2)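 Two-leaf-stage plants, pots flooded (3 cm above soil) and treated through the water, which stayed at that depth. After 13–15 days in greenhouse conditions, visual assessment versus controls: 0 is no effect, 100 complete control, dash means no result.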

sedge, umbrella = assay: Test B flood; assay type: in vivo, Cyperus difformis; conditions: 250 g ai/ha, visual rating on 0 to 100 scale (0 no effect, 100 complete control), 13 to 15 days
Summary of the method: as §2

ducksalad = assay: Test B flood; assay type: in vivo, Heteranthera limosa; conditions: 250 g ai/ha, visual rating on 0 to 100 scale (0 no effect, 100 complete control), 13 to 15 days
Summary of the method: as §2

barnyardgrass [17] = assay: Test B flood; assay type: in vivo, Echinochloa crus-galli; conditions: 250 g ai/ha, visual rating on 0 to 100 scale (0 no effect, 100 complete control), 13 to 15 days
Summary of the method: as §2

[18] = 125 g ai/ha, visual injury, 0 to 100 scale, approx. 10 days
[19] = 500 g ai/ha, visual injury after approx. 10 days, 0 to 100 scale (0 no effect, 100 complete control)
[20] = Postemergence, 500 g ai/ha, visual rating after approx. 10 days, 0 to 100 scale (0 no effect, 100 complete control)
[21] = postemergence, 125 g ai/ha, about 10 days, visual rating on 0 to 100 scale (0 no effect, 100 complete control)
[22] = Postemergence, 500 g ai/ha, 0 to 100 scale (0 no effect, 100 complete control)

Structure (SMILES)	Barnyardgrass plant response rating (barnyardgrass [1]; [18])	Barnyardgrass plant response rating (barnyardgrass [1]; [19])	Crabgrass, Large plant response rating (crabgrass, large [2]; [18])	Crabgrass, Large plant response rating (crabgrass, large [2]; [19])	Foxtail, Giant plant response rating (foxtail, giant [3]; [18])	Foxtail, Giant plant response rating (foxtail, giant [3]; [19])	Morningglory plant response rating (morningglory [4]; [18])	Morningglory plant response rating (morningglory [4]; [19])	Pigweed plant response rating (pigweed [5]; [18])	Pigweed plant response rating (pigweed [5]; [19])	Velvetleaf plant response rating (velvetleaf [6]; [18])	Velvetleaf plant response rating (velvetleaf [6]; [19])	Wheat plant response rating (wheat [7]; [18])	Wheat plant response rating (wheat [7]; [19])	Corn plant response rating (corn [8]; [18])	Corn plant response rating (corn [8]; [19])	Barnyardgrass plant response rating (barnyardgrass [9]; [21])	Crabgrass, Large plant response rating (crabgrass, large [10]; [21])	Foxtail, Giant plant response rating (foxtail, giant [11]; [21])	Morningglory plant response rating (morningglory [12]; [21])	further results
CCc1cc(C(=O)NC2CC2)nn1Cc1cc(C(F)(F)F)nn1CC [Compound 118]	40	100	100	100	70	90	70	100	100	100	0	80	0	30	0	50	30	40	10	70	Barnyardgrass plant response rating (barnyardgrass [9]; [20]): 80; Crabgrass, Large plant response rating (crabgrass, large [10]; [20]): 90; Foxtail, Giant plant response rating (foxtail, giant [11]; [20]): 70; Morningglory plant response rating (morningglory [12]; [20]): 90; Pigweed plant response rating (pigweed [13]; [20]): 100; Pigweed plant response rating (pigweed [13]; [21]): 80; Velvetleaf plant response rating (velvetleaf [14]; [20]): 80; Velvetleaf plant response rating (velvetleaf [14]; [21]): 50; Wheat plant response rating (wheat [15]; [20]): 40; Wheat plant response rating (wheat [15]; [21]): 0; Corn plant response rating (corn [16]; [20]): 50; Corn plant response rating (corn [16]; [21]): 20; Plant response rating, Rice (rice): 0; Plant response rating, Sedge, Umbrella (sedge, umbrella): 85; Plant response rating, Ducksalad (ducksalad): 30; Plant response rating, Barnyardgrass (barnyardgrass [17]): 0
CCc1cc(C(=O)NCC(F)(F)F)nn1Cc1cc(C(F)(F)F)nn1CC [Compound 119]	0	70	70	100	20	80	20	60	80	100	0	30	0	20	0	30	10	20	20	90	Barnyardgrass plant response rating (barnyardgrass [9]; [22]): 60; Crabgrass, Large plant response rating (crabgrass, large [10]; [22]): 60; Foxtail, Giant plant response rating (foxtail, giant [11]; [22]): 50; Morningglory plant response rating (morningglory [12]; [22]): 100; Pigweed plant response rating (pigweed [13]; [22]): 90; Pigweed plant response rating (pigweed [13]; [21]): 60; Velvetleaf plant response rating (velvetleaf [14]; [22]): 70; Velvetleaf plant response rating (velvetleaf [14]; [21]): 50; Wheat plant response rating (wheat [15]; [22]): 10; Wheat plant response rating (wheat [15]; [21]): 0; Corn plant response rating (corn [16]; [22]): 50; Corn plant response rating (corn [16]; [21]): 0; Plant response rating, Rice (rice): 0; Plant response rating, Sedge, Umbrella (sedge, umbrella): 75; Plant response rating, Ducksalad (ducksalad): 40; Plant response rating, Barnyardgrass (barnyardgrass [17]): 0
CCONC(=O)c1cc(CC)n(Cc2cc(C(F)(F)F)nn2CC)n1 [Compound 121]	70	100	90	100	60	80	100	100	100	100	20	100	10	80	30	90	90	70	50	90	Barnyardgrass plant response rating (barnyardgrass [9]; [22]): 90; Crabgrass, Large plant response rating (crabgrass, large [10]; [22]): 90; Foxtail, Giant plant response rating (foxtail, giant [11]; [22]): 80; Morningglory plant response rating (morningglory [12]; [22]): 100; Pigweed plant response rating (pigweed [13]; [22]): 100; Pigweed plant response rating (pigweed [13]; [21]): 90; Velvetleaf plant response rating (velvetleaf [14]; [22]): 100; Velvetleaf plant response rating (velvetleaf [14]; [21]): 60; Wheat plant response rating (wheat [15]; [22]): 60; Wheat plant response rating (wheat [15]; [21]): 0; Corn plant response rating (corn [16]; [22]): 70; Corn plant response rating (corn [16]; [21]): 40; Plant response rating, Rice (rice): 20; Plant response rating, Sedge, Umbrella (sedge, umbrella): 75; Plant response rating, Ducksalad (ducksalad): 75; Plant response rating, Barnyardgrass (barnyardgrass [17]): 15
